Measurements from US20260234180A1, “AMINO ACID DERIVATIVE, PREPARATION METHOD THEREFOR, AND PHARMACEUTICAL COMPOSITION FOR TREATING HEPATITIS, COMPRISING SAME” (priority 2021, published 2026).

target: T1, NTCP (Na+ taurocholate cotransporting peptide), HepG2-hNTCP-C4 cell line (Homo sapiens, UniProt Q14973); experiment: Inhibition of binding between FITC-labelled PreS1 and NTCP expressing cell line, flow cytometry; conditions: 0.2 μM, 2 μM, 10 μM, 50 μM; 20 nM PreS1
T1 construct: expressed in transfected cells; host or cells: HepG2-hNTCP-C4 (HepG2 cells expressing human NTCP)
T1 sequence (Q14973 1-349): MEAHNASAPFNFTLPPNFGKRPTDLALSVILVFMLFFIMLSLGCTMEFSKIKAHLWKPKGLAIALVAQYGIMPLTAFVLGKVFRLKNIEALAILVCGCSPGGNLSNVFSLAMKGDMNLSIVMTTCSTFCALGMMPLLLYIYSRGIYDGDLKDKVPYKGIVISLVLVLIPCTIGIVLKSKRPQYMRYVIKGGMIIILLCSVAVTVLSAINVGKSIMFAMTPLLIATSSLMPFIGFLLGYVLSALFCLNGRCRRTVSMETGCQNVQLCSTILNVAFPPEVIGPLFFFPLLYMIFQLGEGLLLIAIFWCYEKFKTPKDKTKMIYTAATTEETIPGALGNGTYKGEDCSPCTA
Description: HepG2-hNTCP-C4 cell line, a cell line expressing NTCP, was seeded in a 6 well plate at a density of 2×10^5/well and incubated at 4° C. for 30 minutes when the confluency reached 80% after overnight incubation for 2 days. Thereafter, 20 nM PreS1 (Myr-GTNL […]-Lys(FITC) (SEQ ID NO: 1)) and the compounds in Example 1, Examples 38 to 56 or the compound in Comparative Example 1 were treated by diluting in culture media at 4° C. at a concentration of 50 µM respectively, and the media was suctioned after 2 hours, followed by washing 3 times with 4° C. PBS. In order to take the cells off from the plate, 500 μl of 0.5 mM EDTA PBS solution was treated, and then incubation was performed at 37° C. for 15 minutes to check whether the cells fell off through an optical microscope. After taking off the cells by pipetting, the cells were collected in a 1.5 ml tube and centrifuged (4000 rpm, 4° C., 3 min). After suctioning the supernatant, the pellet was washed 3 times with 4° C. PBS, and then green fluorescence was measured via flow cytometry. In this case, taurocholic acid (TCA), a compound known as a substrate of NTCP to reduce the entry of HBV or HDV, was used as a positive control group.
In the graph at the top of FIG. 1, black (1) and red (2) indicate a negative control group with no treatment and an HBV-induced group (HBV preS1) solely treated with PreS1, respectively. Blue (HBV preS1+HBV entry inhibitor) (3) is the fluorescence value for each of Examples or Comparative Examples, evaluated that the closer to the negative control group, the more inhibited the binding between PreS1 and the NTCP cell line.
The experimental method was the same as in the Experimental Example 1-1, and 20 nM PreS1 and each compound were treated at 4 concentrations (0.2 μM, 2 μM, 10 μM, 50 μM).
With an expectation that there is a structure-activity relationship among compounds composed of bile acid and amino acids, for each of bile acids in Comparative Example 1 (lithocholic acid, LCA), Comparative Example 2 (ursodeoxycholic acid, UDCA), Comparative Example 3 (cholic acid, CA), Comparative Example 4 (hyodeoxycholic acid, HDCA), Comparative Example 5 (deoxycholic acid, DCA), and Comparative Example 6 (chenodeoxycholic acid, CDCA), an evaluation experiment was conducted on an ability to inhibit the binding between PreS1 and NTCP expressing cell lines, and also for Examples 1 (LCA-Ile) and Example 44 (LCA-Val) as well as the compounds in Example 2 (UDCA-Ile), Example 3 (UDCA-Val), Example 6 (CA-Ile), Example 7 (CA-Val), Example 8 (HDCA-Ile), Example 9 (HDCA-Val), Example 10 (DCA-Ile), Example 11 (DCA-Val), Example 14 (CDCA-Ile), and Example 15 (CDCA-Val) in which bile acid parts (lithocholic acid) of Example 1 (LCA-Ile) and Example 44 (LCA-Val) were substituted with other types of bile acids in Comparative Examples 2 to 6, an evaluation experiment was conducted on an ability to inhibit the binding between PreS1 and NTCP expressing cell lines. The experimental method was the same as in the Experimental Example 1-1, and 18 compounds in the Comparative Examples 1 to 6, Examples 1 to 3, Examples 6 to 11, Examples 14 to 15, and Example 44 were treated at a concentration of 50 µM along with 20 nM PreS1.
In FIG. 9, an evaluation experiment was conducted to check a degree of inhibiting the binding between PreS1 and NTCP expressing cell lines for compounds in Examples 4 to 5, Examples 12 to 13, Examples 16 to 17, and Comparative Examples 2 (ursodeoxycholic acid, UDCA), Comparative Examples 5 (deoxycholic acid, DCA), and Comparative Examples 6 (chenodeoxycholic acid, CDCA) according to the present disclosure. The experimental method was the same as the Experimental Example 1-1.
In the Experimental Examples 1-4, it was determined whether there is additionally concentration dependence for Example 4 (UDCA-Trp), a compound with good inhibitory ability. […]

Structure (SMILES)	effect of inhibiting the binding between PreS1 and NTCP expressing cell lines by treatment concentration
C[C@H](CCC(=O)N[C@@H](Cc1c[nH]c2ccccc12)C(=O)O)[C@H]1CC[C@H]2[C@@H]3CC[C@@H]4C[C@H](O)CC[C@]4(C)[C@H]3CC[C@]12C [Example 50, (S)-2-((R)-4-((3R,5R,8R,9S,10S,13R,14S,17R)-3-hydroxy-10,13-dimethyl-hexadecahydro-1H-cyclopenta[a]phenanthren-17-yl)pentanamido)-3-(1H-indol-3-yl)propanoic acid]	concentration dependent

same assay, conditions: compared to the HBV-induced group (PreS1-FITC) solely treated with PreS1

Structure (SMILES)	difference in degree of competitive inhibition versus Comparative Example 2 (UDCA)
C[C@H](CCC(=O)N[C@@H](Cc1ccc(O)cc1)C(=O)O)[C@H]1CC[C@H]2[C@@H]3[C@@H](O)C[C@@H]4C[C@H](O)CC[C@]4(C)[C@H]3CC[C@]12C [Example 5, (S)-2-((R)-4-((3R,5S,7S,8R,9S,10S,13R,14S,17R)-3,7-dihydroxy-10,13-dimethyl-hexadecahydro-1H-cyclopenta[a]phenanthren-17-yl)pentanamido)-3-(4-hydroxyphenyl)propanoic acid]	about 2 times

same assay, conditions: compound 50 µM, 20 nM PreS1

Structure (SMILES)	ability to inhibit the binding between PreS1 and NTCP expressing cell lines (bile acid series)
CC[C@@H](C)[C@H](NC(=O)CC[C@@H](C)[C@H]1CC[C@H]2[C@@H]3[C@H](O)C[C@@H]4C[C@H](O)CC[C@]4(C)[C@H]3CC[C@]12C)C(=O)O [Example 14, (2S,3R)-2-((R)-4-((3R,5S,7R,8R,9S,10S,13R,14S,17R)-3,7-dihydroxy-10,13-dimethyl-hexadecahydro-1H-cyclopenta[a]phenanthren-17-yl)pentanamido)-3-methylpentanoic acid]	relatively excellent
CC[C@@H](C)[C@H](NC(=O)CC[C@@H](C)[C@H]1CC[C@H]2[C@@H]3C[C@H](O)[C@@H]4C[C@H](O)CC[C@]4(C)[C@H]3CC[C@]12C)C(=O)O [Example 8, (2S,3R)-2-((R)-4-((3R,5R,6S,8S,9S,10R,13R,14S,17R)-3,6-dihydroxy-10,13-dimethyl-hexadecahydro-1H-cyclopenta[a]phenanthren-17-yl)pentanamido)-3-methylpentanoic acid]	relatively excellent

same assay, conditions: compound 50 µM, 20 nM PreS1, 4° C., 2 hours; lower = more inhibited binding

Structure (SMILES)	relative fluorescence intensity compared to Comparative Example 1 (LCA)
CSCC[C@H](NC(=O)CC[C@@H](C)[C@H]1CC[C@H]2[C@@H]3CC[C@@H]4C[C@H](O)CC[C@]4(C)[C@H]3CC[C@]12C)C(=O)O [Example 48, (S)-2-((R)-4-((3R,5R,8R,9S,10S,13R,14S,17R)-3-hydroxy-10,13-dimethyl-hexadecahydro-1H-cyclopenta[a]phenanthren-17-yl)pentanamido)-4-(methylthio)butanoic acid]	low and lower
C[C@H](CCC(=O)N[C@@H](CS)C(=O)O)[C@H]1CC[C@H]2[C@@H]3CC[C@@H]4C[C@H](O)CC[C@]4(C)[C@H]3CC[C@]12C [Example 40, (R)-2-((R)-4-((3R,5R,8R,9S,10S,13R,14S,17R)-3-hydroxy-10,13-dimethyl-hexadecahydro-1H-cyclopenta[a]phenanthren-17-yl)pentanamido)-3-mercaptopropanoic acid]	low and lower
C[C@H](CCC(=O)N[C@@H](Cc1ccccc1)C(=O)O)[C@H]1CC[C@H]2[C@@H]3CC[C@@H]4C[C@H](O)CC[C@]4(C)[C@H]3CC[C@]12C [Example 49, (S)-2-((R)-4-((3R,5R,8R,9S,10S,13R,14S,17R)-3-hydroxy-10,13-dimethyl-hexadecahydro-1H-cyclopenta[a]phenanthren-17-yl)pentanamido)-3-phenylpropanoic acid]	low
CC(C)C[C@H](NC(=O)CC[C@@H](C)[C@H]1CC[C@H]2[C@@H]3CC[C@@H]4C[C@H](O)CC[C@]4(C)[C@H]3CC[C@]12C)C(=O)O [Example 47]	low and lower
C[C@H](CCC(=O)N[C@@H](CCCCN)C(=O)O)[C@H]1CC[C@H]2[C@@H]3CC[C@@H]4C[C@H](O)CC[C@]4(C)[C@H]3CC[C@]12C [Example 56, (S)-6-amino-2-((R)-4-((3R,5R,8R,9S,10S,13R,14S,17R)-3-hydroxy-10,13-dimethyl-hexadecahydro-1H-cyclopenta[a]phenanthren-17-yl)pentanamido)hexanoic acid]	low
C[C@H](CCC(=O)N[C@@H](Cc1cnc[nH]1)C(=O)O)[C@H]1CC[C@H]2[C@@H]3CC[C@@H]4C[C@H](O)CC[C@]4(C)[C@H]3CC[C@]12C [Example 43, (S)-2-((R)-4-((3R,5R,8R,9S,10S,13R,14S,17R)-3-hydroxy-10,13-dimethyl-hexadecahydro-1H-cyclopenta[a]phenanthren-17-yl)pentanamido)-3-(1H-imidazol-5-yl)propanoic acid]	low
C[C@H](O)[C@H](NC(=O)CC[C@@H](C)[C@H]1CC[C@H]2[C@@H]3CC[C@@H]4C[C@H](O)CC[C@]4(C)[C@H]3CC[C@]12C)C(=O)O [Example 39, (2S,3S)-3-hydroxy-2-((R)-4-((3R,5R,8R,9S,10S,13R,14S,17R)-3-hydroxy-10,13-dimethyl-hexadecahydro-1H-cyclopenta[a]phenanthren-17-yl)pentanamido)butanoic acid]	low and lower
C[C@H](CCC(=O)N[C@@H](Cc1c[nH]c2ccccc12)C(=O)O)[C@H]1CC[C@H]2[C@@H]3CC[C@@H]4C[C@H](O)CC[C@]4(C)[C@H]3CC[C@]12C [Example 50, (S)-2-((R)-4-((3R,5R,8R,9S,10S,13R,14S,17R)-3-hydroxy-10,13-dimethyl-hexadecahydro-1H-cyclopenta[a]phenanthren-17-yl)pentanamido)-3-(1H-indol-3-yl)propanoic acid]	low and lower
C[C@H](NC(=O)CC[C@@H](C)[C@H]1CC[C@H]2[C@@H]3CC[C@@H]4C[C@H](O)CC[C@]4(C)[C@H]3CC[C@]12C)C(=O)O [Example 46, (S)-2-((R)-4-((3R,5R,8R,9S,10S,13R,14S,17R)-3-hydroxy-10,13-dimethyl-hexadecahydro-1H-cyclopenta[a]phenanthren-17-yl)pentanamido)-3-propanoic acid]	low

same assay, conditions: vs Comparative Example 2 (UDCA), 5 (DCA) or 6 (CDCA); method as Experimental Example 1-1

Structure (SMILES)	relative fluorescence intensity in comparison with the parent bile acid Comparative Example
C[C@H](CCC(=O)N[C@@H](Cc1ccc(O)cc1)C(=O)O)[C@H]1CC[C@H]2[C@@H]3[C@H](O)C[C@@H]4C[C@H](O)CC[C@]4(C)[C@H]3CC[C@]12C [Example 17, (S)-2-((R)-4-((3R,5S,7R,8R,9S,10S,13R,14S,17R)-3,7-dihydroxy-10,13-dimethyl-hexadecahydro-1H-cyclopenta[a]phenanthren-17-yl)pentanamido)-3-(4-hydroxyphenyl)propanoic acid]	low
C[C@H](CCC(=O)N[C@@H](Cc1ccc(O)cc1)C(=O)O)[C@H]1CC[C@H]2[C@@H]3[C@@H](O)C[C@@H]4C[C@H](O)CC[C@]4(C)[C@H]3CC[C@]12C [Example 5, (S)-2-((R)-4-((3R,5S,7S,8R,9S,10S,13R,14S,17R)-3,7-dihydroxy-10,13-dimethyl-hexadecahydro-1H-cyclopenta[a]phenanthren-17-yl)pentanamido)-3-(4-hydroxyphenyl)propanoic acid]	low
